Results on five compounds are retold here after EP0433084A2, “Use of aromatese inhibitors for the reversal of female sexual phenotype in poultry” (MERCK & CO. INC., priority 1989, dated 1991).

Data set [1] has as its system gonads from control males and treated females. Particulars: in vivo.
Data set [2] concerns autosexing strains of chickens. The method, then:
(§1) To more easily monitor changes in development as a function of age according to genetic sex two different autosexing strains of chickens were treated as above. All chickens were allowed to reach sexual maturity. […] One of the three was killed after 24 weeks and the remaining two (tag numbers 1977 and 1981) were killed after 31 weeks. Prior to killing blood was taken from each animal and used to determine sex steroid levels. At the time of killing the gonads were removed and fixed for histology in Bouin's fixative.
The right gonad and oviduct of the normal female begins to regress during embryogenesis and at maturity females have a single ovary and oviduct. The remaining left ovary consists of a series of follicles staged to mature at daily intervals.

Data set [3] concerns hybrids used in Example 3. Particulars: for Estradiol / Testosterone: serum. The protocol: as §1
Estradiol and testosterone levels were determined in serum samples using commercial RIA assay kits which are well known in the art.

In data set [4] the test system is Line 67 White Leghorn embryos. The following applies: in vivo. The method, then:
(§2) The inhibitor was dissolved in saline at concentrations ranging form 1 mg/ml to 100 mg/ml and the injection volume ranged from 20 µl to 100 µl producing doses of 20 µg to 10 mg. Injections were made with a 23 G x 1 inch needle. A light source was used to orient the eggs and the injection is made under the air sac into the egg white surrounding the developing embryo. The hole was sealed with Scotch tape and the eggs were placed in a humidified, rocking incubator. At day fourteen of incubation, the embryos were removed form their shells and dissected to observe development of the gonads.

The test system of data set [5] is Line 139 White Leghorn Chickens. The following applies: for Female / Male / Und. (Undetermined): gonadal sex type at day 14, number of embryos; for Survived day 14: number of embryos. The method, then: as §2
Another data set in a line: in vivo. The following applies: chicken, embryos in ovo, %Hatched. The protocol: as §2
(§3) The procedures are the same as described above.

For data set [6], the system named is Abor Acre x Abor Acre Hybrid Broiler Chickens. As to the kind of experiment: in vivo. The method, then: as §2, §3
The subject of a further data set is turkey embryos. The protocol:
A light source was used to orient the eggs and the injection is made under the air sac into the egg white surrounding the developing embryo. The hole was sealed with Scotch tape and the eggs were placed in a humidified, rocking incubator. The birds were allowed to hatch and the phenotypic and genotypic sex determined.

Data set [7] relates to F₁ Hybrids of Rhode Island Males Crossed With Plymouth Barred Rock Females. As to the kind of experiment: Gonadal sex type of 14 day embryos after in ovo injection. The data set is classed as in vivo, chicken. The protocol:
Fertilized chicken embryos were injected on day 5 of incubation with the aromatase inhibitor 1,4,6-androstatriene-3,17-dione. The inhibitor was dissolved in 1,2-propane-diol at a concentration of 20 mg/ml and the injection volume was 100 µl producing a dose of 2 mg.

Another data set relates to female Mullerian ducts. Particulars: chick embryo; Huston et al., Gen. Comp. Endocrinol. 57: 88-102 (1985); cited from earlier work.
[8] abbreviates: animal 1977, treated genetic female, phenotypic male, 31 weeks.
Where [9] appears, read: animal 1978, treated genetic male.
[10] abbreviates: animal 1981, treated genetic female, phenotypic male, 31 weeks.
Where [11] appears, read: Experiment 1, 20 µg injected on day 5.
Where [12] appears, read: Experiment 1, 100 µg injected on day 5.
The mark [13] stands for this setting: Experiment 1, 2 mg injected on day 5.
[14] abbreviates: Experiment 1, 10 mg injected on day 5, none survived.
Where [15] appears, read: Experiment 2, 100 µg injected on day 4.
Setting [16] is: Experiment 2, 1 mg injected on day 4.
Where [17] appears, read: Experiment 3, 100 µg injected on day 5.
[18] abbreviates: Experiment 3, 1 mg injected on day 5.
[19] abbreviates: gonadal sex type at day 14, number of embryos, 2.0 mg injected on day 5.

Structures can show the parent of a compound that is named as a salt. Where two headings read alike, the source gives them in different places.

Consider `N#Cc1ccc(C2CCCc3cncn32)cc1` (racemic) [± 5-(p-cyanophenyl)-5,6,7,8-tetrahydroimidazo [1,5-α] pyridine hydrochloride], for which the “seminiferous tubules in gonads of treated females” value in data set [1] is “present in both the left and right gonads”. The “abdominal fat of treated females” value in data set [2] (31 week old, abdominal cavities opened, compared with control females) is given as “absence of abdominal fat”. The “treated females developed a male phenotype” value in data set [2] (Sex-Sal autosexing strain, injected day 4 or 5, at sexual maturity) is “one of two”. Further, in data set [2] (by seven months of age, injected day 4 or 5), the “appearance and behavior of treated females” value is “obviously masculine in appearance and behavior”. In addition, in [2] (hybrids used in Example 3, injected day 4 or 5, at sexual maturity), the “adult females developed male phenotypes” value is recorded as “three of four”. In data set [2] (two gonads without oviducts, at necropsy), the “presence of testes in treated females” value is on record as “three of the four”. The “serum hormone profiles of treated females” value in data set [3] (31 week old) is recorded as “resembling adult males”. Moreover, the Estradiol in data set [3] (animal 1976, treated genetic female that did not respond, phenotypically female) was 57 ng/mL; in data set [3] (setting [8]), 12 ng/mL; in [3] (setting [9]), 5 ng/mL; in [3] (setting [10]) it was 2 ng/mL. The Testosterone came to 224 ng/mL in data set [3] (setting [8]), 412 ng/mL in data set [3] (setting [9]) and 109 ng/mL in data set [3] (setting [10]). The “vent sexed as males” value in [4] is “all birds”. Moreover, the Female in [5] (setting [11]) is reported as 2; in data set [5] (setting [12]), 0; in data set [5] (setting [13]) it was 0; in [5] (setting [14]), 0; in [5] (setting [15]), 0; in data set [5] (setting [16]) it was 0. Besides, the Female in data set [5] (setting [17]) came out at 0; in data set [5] (setting [18]), 0; in [6] (10 µg injected on day 5), 36; in data set [6] (50 µg injected on day 0), 2; in [6] (50 µg injected on day 5), 0; in data set [6] (100 µg injected on day 5) it was 0. Also, the Male in data set [5] (setting [11]) was 0; in data set [5] (setting [12]), 3; in data set [5] (setting [13]) it was 2; in data set [5] (setting [14]), 0; in [5] (setting [15]) it was 3; in data set [5] (setting [16]), 4. In addition, the Male in data set [5] (setting [17]) is given as 4; in [5] (setting [18]), 5; in data set [6] (10 µg injected on day 5), 60; in data set [6] (50 µg injected on day 0), 45; in data set [6] (50 µg injected on day 5), 88; in data set [6] (100 µg injected on day 5), 91. The “Und. (Undetermined)” value in data set [5] (setting [11]) stood at 0; in data set [5] (setting [12]), 0; in data set [5] (setting [13]), 0; in data set [5] (setting [14]), 0; in data set [5] (setting [15]) it was 1; in [5] (setting [16]), 0. Also, the figures for the “Und. (Undetermined)” value in data set [5] (setting [17]) and in [5] (setting [18]) were 1 and 0, respectively. The “Survived day 14” value is reported as 2 in data set [5] (Experiment 1, 20 µg injected on day 5, 4 injected); 3 in data set [5] (Experiment 1, 100 µg injected on day 5, 4 injected); 2 in data set [5] (Experiment 1, 2 mg injected on day 5, 4 injected); 0 in data set [5] (Experiment 1, 10 mg injected on day 5, 4 injected); 4 in data set [5] (Experiment 2, 100 µg injected on day 4, 5 injected); 4 in data set [5] (Experiment 2, 1 mg injected on day 4, 6 injected). In addition, the “Survived day 14” value turned out to be 5 in [5] (Experiment 3, 100 µg injected on day 5, 7 injected) and 5 in [5] (Experiment 3, 1 mg injected on day 5, 7 injected). Further, the survival in “in vivo” (0.01 mg, 10 µg injected on day 5) amounted to 72%; in the data set “in vivo” (0.05 mg, 50 µg injected on day 0), 40%; in “in vivo” (0.05 mg, 50 µg injected on day 5), 67%; in the data set “in vivo” (0.1 mg, 100 µg injected on day 5), 69%. Besides, the “phenotype of unhatched embryos” value with turkey embryos (1 mg, 2 pipped embryos and 2 embryos that died after 25 and 27 days of incubation) is “All embryos were phenotypic male”. For the same compound, in the data set on turkey embryos (1 mg, of 4 hatched birds, 2 feather-sexed as female and 2 as male), the “vent sexed as male” value was found to be 4. Further, in the data set with turkey embryos (eggs inoculated with 1 mg, day 4 or 5 of incubation), the birds hatched entry is on record as “Four”.
On to `C[C@]12C=CC(=O)C=C1C=C[C@@H]1[C@@H]2CC[C@]2(C)C(=O)CC[C@@H]12` [1,4,6-androstatriene-3,17-dione], for which the birds being males in [7] (2 mg injected on day 5, gonads at day 14) is 100%. In addition, in [7] (setting [19]), the Female was found to be 0 and the Male is recorded as 5. Moreover, the “Survived day 14” value in data set [7] (number of embryos, 2.0 mg in 1,2-propane-diol injected on day 5) was 5.
With `O=C(c1ccc(OCCN2CCCC2)cc1)c1c(-c2ccc(O)cc2)sc2cc(O)ccc12` [LY117018], in the data set with female Mullerian ducts, the “effect on the female Mullerian ducts” value is recorded as “little effect”.
Regarding `C#C[C@]1(O)CC[C@H]2[C@@H]3CCC4=CC(=O)CC[C@@H]4[C@H]3CC[C@@]21C` [norethindrone], the “effect on the female Mullerian ducts” value in the data set on female Mullerian ducts is given as “partial regression of the upper end of the left Mullerian duct as well as complete loss of the lower ends of both ducts”.
Turning to `CC/C(=C(\c1ccccc1)c1ccc(OCCN(C)C)cc1)c1ccccc1` [tamoxifen], the “effect on the female Mullerian ducts” value in the data set on female Mullerian ducts is given as “little effect”.
